No end group written: not given here.
Experiments:
Assay type in all cases: cell-based
CaR2 = target: T1, CaR2 (Homo sapiens, UniProt Q5T6X5); assay: FLIPR assay of intracellular Ca^++ in HEK293 clone HEK-167B12-2.1 stably expressing CaR2; conditions: for FLIPR response (change of intracellular Ca^++ levels): initial ligand testing in the transfected cells; for effect on OC/Ca^++ activation of CaR2: OC and Ca^2+ pre-incubated with / in the presence of lead ion
T1 construct: expressed in transfected cells
T1 sequence (Q5T6X5 19-926): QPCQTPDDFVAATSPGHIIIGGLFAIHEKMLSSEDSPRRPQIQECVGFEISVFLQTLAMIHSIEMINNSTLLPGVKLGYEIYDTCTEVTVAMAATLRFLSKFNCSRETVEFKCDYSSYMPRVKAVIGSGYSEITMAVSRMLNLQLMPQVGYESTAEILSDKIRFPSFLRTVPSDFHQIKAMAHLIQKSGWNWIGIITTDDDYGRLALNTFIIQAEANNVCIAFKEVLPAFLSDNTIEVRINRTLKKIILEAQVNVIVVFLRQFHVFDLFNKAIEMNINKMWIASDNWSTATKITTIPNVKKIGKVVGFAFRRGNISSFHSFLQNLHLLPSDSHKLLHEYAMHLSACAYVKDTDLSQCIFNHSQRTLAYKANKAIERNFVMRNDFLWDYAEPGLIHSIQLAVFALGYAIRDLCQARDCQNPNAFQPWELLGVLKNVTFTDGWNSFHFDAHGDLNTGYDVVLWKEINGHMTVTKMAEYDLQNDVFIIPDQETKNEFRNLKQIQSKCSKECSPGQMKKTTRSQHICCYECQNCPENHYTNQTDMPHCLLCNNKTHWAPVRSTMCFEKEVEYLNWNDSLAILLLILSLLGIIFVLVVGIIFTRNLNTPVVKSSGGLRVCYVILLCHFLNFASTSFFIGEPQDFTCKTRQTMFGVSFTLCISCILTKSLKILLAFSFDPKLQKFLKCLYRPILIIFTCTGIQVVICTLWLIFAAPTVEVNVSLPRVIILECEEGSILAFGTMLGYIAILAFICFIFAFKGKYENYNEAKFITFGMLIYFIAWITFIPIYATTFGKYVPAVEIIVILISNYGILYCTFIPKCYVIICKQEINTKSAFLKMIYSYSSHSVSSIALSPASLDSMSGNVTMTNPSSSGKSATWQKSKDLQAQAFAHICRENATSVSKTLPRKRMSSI
Experimental: To facilitate pharmacological experimentation, CaR2 cDNA was cloned into the mammalian expression vector pcDNA 3.1 (+) Neo with or without a COOH-terminal FLAG epitope. The transgene was introduced into the HEK293 cell line and stable transfectants were identified. These clones were analyzed for CaR2 expression by qPCR and Western blotting to identify those clones that were suitable for ligand identification. The clone HEK-167B12-2.1 was chosen for further experimentation.
Based on the homology to the characterized goldfish odorant receptor 5.24, initial studies investigated the ability of 18 naturally occurring amino acids to trigger changes of intracellular Ca^++ levels in the transfected cells, as measured with a fluorescent imaging plate reader (FLIPR).
(§1) Intracellular Ca^++ was measured using a fluorometric imaging plate reader (FLIPR) [Molecular Devices]. Cells were seeded at a density of 1×10^5/well (96-well plate) or 1×10^4/well (384-well plate) in collagen coated plates and incubated overnight at 36.9° C. with 5% CO2. Medium was aspirated from the plates and replaced with equal volumes of a no wash calcium dye (Molecular Devices) and modified Hank's buffered saline solution [Ca^2+-free, Mg^2+-free] (140 mM NaCl, 5.4 mM KCl, 0.64 mM KH2PO4, 3 mM NaHCO3, 5.5 mM C6H12O6, 20 mM HEPES, 2.5 mM Caprylic acid (or 2.5 mM probenecid)). The plates were incubated for 1 hour at 36.9° C. with 5% CO2. FLIPR was used to measure changes in intracellular calcium as relative fluorescence upon activation by ligand.

parental HEK293 cells = assay: FLIPR assay of intracellular Ca^++ in parental HEK293 cells that do not express CaR2
Experimental: as §1
(§2) Also, the apical side of cells lining tubules in Henle's loop in kidney and in epithelial cells lining prostate ducts are microenvironments where CaR2 would encounter higher than standard extracellular Ca^++.

CaR = target: T2, CaR (Homo sapiens, UniProt P41180); assay: Ca^++ response of HEK 293 cells that express the previously characterized CaR
T2 construct: expressed in transfected cells; host or cells: HEK 293
T2 sequence (P41180 20-1078): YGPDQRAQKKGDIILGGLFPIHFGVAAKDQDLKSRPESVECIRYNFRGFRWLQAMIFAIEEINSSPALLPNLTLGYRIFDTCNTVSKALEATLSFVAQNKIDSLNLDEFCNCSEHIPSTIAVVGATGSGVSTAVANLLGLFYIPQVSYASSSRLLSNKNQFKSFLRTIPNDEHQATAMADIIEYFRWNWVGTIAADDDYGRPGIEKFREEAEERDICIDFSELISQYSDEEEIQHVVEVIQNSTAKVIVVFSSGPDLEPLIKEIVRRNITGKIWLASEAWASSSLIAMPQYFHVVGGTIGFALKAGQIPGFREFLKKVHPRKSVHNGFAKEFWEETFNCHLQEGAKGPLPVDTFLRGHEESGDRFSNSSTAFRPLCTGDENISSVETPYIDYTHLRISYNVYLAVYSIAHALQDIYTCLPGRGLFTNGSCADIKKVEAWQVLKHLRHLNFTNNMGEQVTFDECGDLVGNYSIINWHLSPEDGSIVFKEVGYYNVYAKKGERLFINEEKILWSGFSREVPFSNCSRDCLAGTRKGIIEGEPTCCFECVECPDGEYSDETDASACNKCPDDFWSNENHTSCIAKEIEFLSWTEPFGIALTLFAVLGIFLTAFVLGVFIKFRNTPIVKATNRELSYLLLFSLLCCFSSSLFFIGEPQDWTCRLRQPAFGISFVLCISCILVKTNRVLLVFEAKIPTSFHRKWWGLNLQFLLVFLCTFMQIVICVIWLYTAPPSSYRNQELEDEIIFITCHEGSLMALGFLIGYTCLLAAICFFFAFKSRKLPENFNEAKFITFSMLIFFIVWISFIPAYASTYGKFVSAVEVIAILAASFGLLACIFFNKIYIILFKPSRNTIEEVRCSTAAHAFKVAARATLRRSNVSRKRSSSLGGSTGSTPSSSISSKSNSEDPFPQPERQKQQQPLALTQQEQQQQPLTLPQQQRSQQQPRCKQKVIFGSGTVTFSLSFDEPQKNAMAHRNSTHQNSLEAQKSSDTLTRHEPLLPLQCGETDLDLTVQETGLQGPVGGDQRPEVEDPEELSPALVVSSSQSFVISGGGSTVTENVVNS
Experimental: as §1, §2

## osteocalcin (YLYQWLGAPVPYPDPLEPRREVCELNPDCDELADHIGFQEAYRRFYGPV; ends and bridges not checked; cysteine pairing not given here; UniProt P02818 52-100, looked up)
CaR2; OC pre-incubated with 10 mM Ca^++
  OC activation of CaR2: activates CaR2 when pre-incubated with 10 mM Ca^++ in a dose-dependent manner
CaR2; in the presence of osteocalcin
  effect of OC on CaR2 activation by calcium: activated at lower calcium levels and the activation by high mM calcium was potentiated
CaR2; pre-incubated versus both ligands added separately
  synergistic effect of Ca^++ and osteocalcin on CaR2, dependence on pre-incubation: only witnessed when calcium is pre-incubated with OC, but not when both ligands are added separately
Parental HEK293 cells; OC and Ca^++ added to parental HEK293 cells
  synergistic effect of Ca^++ and osteocalcin: not observed
CaR; OC and Ca^++ added to HEK293 cells that express CaR
  synergistic effect of Ca^++ and osteocalcin: not observed

## [Ca+2] [Ca^++, calcium]
CaR2; 10 mM Ca^++
  activation of CaR2: modest activation
CaR2; 40 mM Ca^++
  activation of CaR2: robustly activated
CaR2; Ca^++ as activating ligand, clone expressing CaR2
  EC50: 85 mM
CaR2; clone expressing CaR2
  calcium level causing a marked increase in fluorescence signal, hence intracellular Ca^++: > 20 mM
CaR2
  FLIPR response (change of intracellular Ca^++ levels): failed to elicit a positive FLIPR response
Parental HEK293 cells; parental cell line, >20 mM calcium
  increase in fluorescence signal by high calcium levels: not observed
CaR; transfected HEK 293 cells
  EC50: 4.1 mM

## CN[C@H](CC(=O)O)C(=O)O [NMDA]
CaR2
  FLIPR response (change of intracellular Ca^++ levels): failed to elicit a positive FLIPR response

## NCCCC(=O)O [GABA]
CaR2
  FLIPR response (change of intracellular Ca^++ levels): failed to elicit a positive FLIPR response

## [Pb+2] [Pb^2+]
CaR2
  effect on OC/Ca^++ activation of CaR2: reversed
CaR2; listed as Pb^++
  effect on OC/Ca^++ activation of CaR2: blocked

From patent US20040082018A1, “Methods for using osteocalcin” (Athersys, Inc., priority 2002, published 2004)
